How the values were obtained:
Type in all cases: cell-based, human
MCF-7 cells [1] = assay: Cell growth (CCK-8); conditions: 75 μmol/l peptide, MCF-7, CCK-8; means of three experiments (Fig. 1b)
Protocol: (§1) Cell growth was analyzed using 2-(2-methoxy-4-nitrophenyl)-3-(4-nitroph enyl)-5-(2,4-disulfophenyl)-2H-tetrazolium, monosodium salt, and the Cell Counting Kit-8 (CCK-8, Sigma). […] After culturing for another 48 hr, cell growth was analyzed by CCK-8 and the optical density was detected at 450 nm. The growth ratio was normalized to the cells without treatment.

MDA-MB-231 cells = assay: Cell growth (CCK-8); conditions: 75 μmol/l peptide, MDA-MB-231, CCK-8; means of three experiments (Fig. 1b)
Protocol: as §1

MCF-7 cells [2] = assay: Cell cycle analysis, sub-G1 (propidium iodide, flow cytometry); conditions: MCF-7, 100 μmol/l peptide, flow cytometry (Fig. 3a)
Protocol: MCF-7 and MDA-MB-231 cells were plated in 6-well plates for 24 hr, and the medium was replaced with fresh culture medium containing 100 μmol/l peptide. After incubation for 24 hr, the cells were harvested by trypsinization and then fixed with 70% 4 °C ethanol. Intracellular DNA was stained with […] propidium iodide in the dark for 30 min at room temperature, and the percentages of sub-G1 cells were determined by flow cytometry (BD LSRII analyzer; BD Biosciences).

H-TAT-NLS-GGGDPELCATDEMIPFKDEG-NH2 [TAT-NLS-BLBD-3]
cell growth (MCF-7 cells [1]): inhibited the growth | cell growth (MDA-MB-231 cells): inhibited the growth

H-TAT-NLS-GTDEAAAA-NH2 [TAT-NLS-BLBD-6m, mutated version of TAT-NLS-BLBD-6 (GTDEAAAA), used as control peptide]
cell growth (MCF-7 cells [1]): did not affect the growth | cell growth (MDA-MB-231 cells): did not affect the growth | sub-G1 phase region (pro-apoptotic effect) (MCF-7 cells [2]): 7.35%
